One may read the EC50 as the concentration that produces a half-maximal response. By IC50 is commonly meant the midpoint of a concentration-inhibition curve. Broadly, the melting point is the temperature, or range, at which the solid turns liquid. As a reminder, the inhibition is the percentage by which the read-out fell short of the control. A high value points to a response far below the control.

Here are results for one molecule from patent US8217042B2, “Pyridopyrazines and their use as modulators of kinases” (Zentaris GmbH, priority 2005, dated 2012).

Series [1] deals with MDA-MB468. Briefly: XTT assay, anti-proliferative action, MDA-MB468. It is filed as cell-based. The following applies: Homo sapiens, MDA-MB-468, 45 h, MDA-MB468 cells, 45 h incubation. On the procedure:
(§1) The principle of this test is based on the intracellular reduction of the tetrazolium dye XTT (sodium 3′-[1-(phenylaminocarbonyl)-3,4-tetrazolium]bis(4-methoxy-6-nitro)benzenenesulphonic acid, Sigma) to a formazan dye by mitochondrial dehydrogenases.
(§2) The dye is formed only by metabolically active cells; its photometrically measurable intensity is a quantitative indicator for the presence of living cells. The reduction in the dye formation as a result of incubation of the cells with substances serves as a parameter for the anti-proliferative action.
(§3) The tumour cell lines (ATCC) were seeded in 96-well microtitre plates in a defined cell count (5000 cells/well for BxPC3 and Hct116; 10 000 cells/well for MDA MB468), and then incubated overnight in an incubator at 37° C., 5% CO2 and 95% air humidity. The test substances were made up as stock solutions (10 mM) in DMSO. […] The cell plates were then incubated for 45 h in an incubator at 37° C., 5% CO2 and 95% air humidity.
(§4) For the detection reaction, the XTT substrate was admixed with PMS (N-methyldibenzopyrazine methylsulphate, Sigma) and added to the cells, so as to result in a final concentration of 325 μg of XTT/ml and 2.5 μg PMS/ml. The mixture was then incubated for 3 h at 37° C., 95% air humidity. Subsequently the formazan salt formed by cellular dehydrogenases was quantified at an absorption of 490 nm.
(§5) The evaluation of the % inhibition values was done by means of the following formula from the values for the optical densities measured in each case at 490 nm:
(§6) The controls were determined 8 times each, the substance samples twice each. 0% control contained no cells; the 100% control contained no test substance. The EC50 values were determined with GraphPadPrism.

Series [2] has as its system Jnk1 + Jnk2. Briefly: Cell-free kinase assay (ALPHA technology), Jnk1 + Jnk2. It is filed as biochemical. The following applies: at 10 μM or 100 μM* ATP, recombinant human kinases.
Series [3] deals with Hct116. Briefly: XTT assay, anti-proliferative action, Hct116. It is filed as cell-based. The conditions noted are these: Homo sapiens, HCT-116, 45 h, Hct116 cells, 45 h incubation. The procedure: as §1, §2, §3, §4, §5, §6
In general terms: Tetrazolium dyes change colour on reduction, which living cells bring about.

In series [4] the test system is PI3K →pAkt. In words: Cellular substrate phosphorylation (Western blotting), PI3K substrate Akt. It is filed as cell-based. The following applies: 5 h, tumour cell line. The procedure: This method enables a statement of whether the kinase modulator investigated achieves the desired effect in a cellular context too, i.e., in this case, a substrate protein downstream of the target kinase is examined for its phosphorylation status. To this end, the cells incubated with substance are lysed and the overall protein is separated on a reducing polyacrylamide gel. Subsequently, the proteins are transferred by means of Western blotting to a PVDF membrane and the substrate bands sought are made visible with specific antibodies and a suitable detection method. The substrate proteins downstream of the target kinases are detected simultaneously with an anti-phospho antibody which is specific in each case and simultaneously a total antibody which recognizes the substrate total protein. The duplex technology of the ODYSSEY imager (LiCOR) enables this simultaneous measurement. The intensity of the total substrate bands is employed to normalize and quantify the phosphorylation inhibition or activation.
Suitable tumour cell lines (e.g. BxPC3, Hct116 or MDA MB468) were seeded into 6-well microtitre plates in a defined cell count (e.g. 350 000 cells/well for BxPC3 and Hct116) in the particular standard complete media and then incubated overnight in an incubator at 37° C., 5% CO2 and 95% air humidity. The cells were then incubated further for a further 24 h under reduced-serum conditions, i.e. in the particular medium except at only 0.25% serum. The test substances were made up as stock solutions (10 mM) in DMSO and incubated with the cells at final concentrations of 5, 15.8 and 50 μM for 5 h. This was followed by cell lysis in 25 mM Tris, 150 mM NaCl, 10 mM sodium pyrophosphate, 2 mM EGTA, 25 mM beta-glycerophosphate, 25 mM NaF, 10% glycerol, 0.75% NP-40, 100 μM NaVO4 buffer. After protein quantification by means of BCA (bicinchonic acid protein assay kit, Sigma) assay, amounts of protein of about 20 μg per track were separated on a Lammli polyacrylamide gel and then transferred onto a PVDF membrane (Millipore) by means of semi-dry Western blotting at 0.8 mA/cm^2 for 1 h. This was followed by prehybridization of the membrane for 1 hour in I-block reagent (Applied Biosystems) and overnight incubation with the specific antibodies. To determine the Erk and PI3K inhibition, the next substrates Rsk1 downstream were detected with the total antibody (Rsk #sc-231g C-21, Santa Cruz) and the phospho antibody (Phospho-p90RSK (S380) #9341, NEB Cell Signalling) and Akt with the total antibody (Akt1 #sc-20, Santa Cruz) and the phospho antibody (Phospho-Akt (Ser 473) #9271, NEB Cell Signaling). After the membrane had been washed, the secondary antibodies were incubated with anti-rabbit IR Dye 800 (#611-732-127, Rockland) for the phospho antibody and anti-goat Alexa Fluor 680 (#A-21081, […]) for the total protein antibody. After incubation for 30 min at room temperature in the dark, the hybridization of the detection antibody was detected on the membrane by scanning in an ODYSSEY imager (LiCOR).
On the technique in general: A western blot detects proteins with antibodies after separation by electrophoresis.

`CCNC(=O)Nc1ccc2ncc(Nc3ccc(C)c(NS(C)(=O)=O)c3)nc2n1` [Compound 49, N-{5-[6-(3-Ethylurea)pyrido[2,3-b]pyrazin-3-ylamino]-2-methylphenyl}methanesulphonamide] had a melting point of 247 to 250 °C. The same molecule came in with an EC50 in series [1] of 16 µM. Besides, in series [2], the 50% inhibitory concentration (IC50) was over 31.6 µM. The same molecule displayed an EC50 in series [3] of about 20 µM. Besides, in series [4], the inhibition at 50 µM came to 90%.
